pKi: −log10 of the molar value.

From patent publication US20080280877A1, “Azetidines” (Pfizer Inc, priority 2007, published 2008) come the findings set out here.

This experiment addresses T1, recombinant human EP-2 receptor (Homo sapiens, UniProt P43116).
T1 construct: cell line stably transfected with full length cDNA encoding human Prostaglandin E2 was established; expressed in transfected cells; host or cells: CHO (Chinese hamster ovary) cells, stably transfected
Briefly: in vitro antagonist potency against recombinant human EP-2 receptor in CHO cells (cAMP, Protocol 1). It is filed as cell-based. As to conditions: functional Ki by Cheng-Prusoff from IC50; CHO cells stimulated with PGE2 (5 nM); cAMP readout; read-out: EP2 Ki. The source says: 1.0 Measurement of in vitro Antagonist Potency (IC50) of Compounds Against Recombinant Human Prostaglandin E2 Receptor in CHO Cells
The prostaglandin E2 (EP-2) receptor is Gs coupled and agonism of the receptor by PGE2 results in activation of intracellular adenylate cyclase enzymes that synthesise the second messenger signalling molecule, adenosine 3′,5′-cyclic monophosphate (cAMP). […] Decreases in cAMP levels following treatment of stimulated recombinant EP-2 cells with potential antagonist compounds were measured and potency (IC50) calculated as follows. A Chinese hamster ovary (CHO) cell line stably transfected with full length cDNA encoding human Prostaglandin E2 was established using standard molecular biology methods. Test compounds were dissolved in dimethyl sulphoxide (DMSO) at 4 mM. 11 point half log unit increment dilution series of test compound were prepared in DMSO then diluted 1 in 40 in a buffer comprised of phosphate buffered saline (PBS) and 0.05% pluronic F-127 surfactant. Freshly cultured cells at 80-90% confluence were harvested and re-suspended in 90% growth media/10% DMSO. The cells were frozen using a planar freezer and stored in frozen aliquots in cryovials in liquid nitrogen until the day of the experiment. A vial of cells was defrosted in a 37° C. water bath for 2 min, then transferred to 10 ml of Dulbecco's Modified Eagle's Medium (DMEM). The cells were then centrifuged for 5 min at 1000 g and the pellet re-suspended at 1,000,000 cells/ml in DMEM. 5,000 cells (5 ul) were added to 5 ul of the compound dilution series in a 384 well assay plate and pre-incubated for 30 min at 37° C. 5 ul of agonist (15 nM PGE2 in PBS to give 5 nM FAC) was added and plates further incubated for 90 min at 37° C. The relative cAMP concentration in each well was then measured using a ? -galactosidase enzyme fragment complementation method purchased in kit form as the Discoverx cAMP II kit from GE Healthcare, UK. […] Sigmoidal curves were fitted to plots of log10 inhibitor concentration vs. percent effect. IC50 estimates were determined as the concentration of test compound giving an effect half way between the bottom and top asymptotes of the sigmoidal dose response curve. Each experiment included an IC50 determination for the literature compound as a standard to track assay consistency and allow fair comparison between values obtained in different experiments. The EC50 of PGE2 is used in combination with the ligand concentration in the assay to determine Ki values for antagonist dose responses using the Cheng-Prusoff equation. Consequently an agonist dose response curve is carried out for each experiment using the same incubation as the antagonist plate.

T1 sequence (P43116 whole entry): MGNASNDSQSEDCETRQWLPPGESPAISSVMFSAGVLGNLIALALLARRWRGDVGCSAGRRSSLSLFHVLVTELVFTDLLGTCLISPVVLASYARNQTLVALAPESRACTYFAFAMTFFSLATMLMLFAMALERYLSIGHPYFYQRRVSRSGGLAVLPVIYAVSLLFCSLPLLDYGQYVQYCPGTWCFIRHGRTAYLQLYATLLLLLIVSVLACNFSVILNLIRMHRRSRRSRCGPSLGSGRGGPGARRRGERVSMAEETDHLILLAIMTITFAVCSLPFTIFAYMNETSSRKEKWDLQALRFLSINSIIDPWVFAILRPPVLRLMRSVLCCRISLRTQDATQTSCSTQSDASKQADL

Usually pKi stands for the negative decadic logarithm of the Ki, by convention in mol/L. Regarding `O=C(c1ccc(F)cc1)N1CC(COc2cccc(-c3ccccc3)c2)(C(=O)O)C1` [Example 37], the pKi is 6.12.

Take `O=C(c1ccc(Cl)cc1)N1CC(COc2ccc(-c3ccccc3)cc2)(C(=O)O)C1` [Example 17]: the pKi was 7.71.

For the molecule `CCOC(=O)C1(COc2ccc3cc(OC)ccc3c2)CN(C(=O)c2ccc(F)cc2)C1` [Example 51, Ethyl 1-(4-fluorobenzoyl)-3-{[(6-methoxy-2-naphthyl)oxy]methyl}azetidine-3-carboxylate], the pKi is 6.48.

Regarding `COc1ccc2cc(OCC3(C(=O)NS(C)(=O)=O)CN(C(=O)c4ccc(F)cc4)C3)ccc2c1` [Example 50, 1-(4-Fluorobenzoyl)-3-{[(6-methoxy-2-naphthyl)oxy]methyl}-N-(methylsulfonyl)azetidine-3-carboxamide], the pKi is 6.11.

For the molecule `Cc1nc2ccc(OCC3(C(=O)O)CN(C(=O)c4ccc(F)cc4)C3)cc2s1` [Example 30], the pKi was 6.69.

In the case of `COc1cccc(C(=O)N2CC(COc3ccc4nc(C)ccc4c3)(C(=O)O)C2)c1` [Example 31], the pKi was 6.63.

On to `CSc1ccc(NC(=O)N2CC(COc3ccc(C)c4c3CCC4)(C(=O)O)C2)cc1` [Example 72], for which the pKi was 6.13.

For the molecule `N#Cc1ccc(-c2ccc(OCC3(C(=O)O)CN(C(=O)c4ccc(Cl)cc4)C3)cc2)cc1` [Example 1, 1-(4-Chlorobenzoyl)-3-{[(4′-cyanobiphenyl-4-yl)oxy]methyl}azetidine-3-carboxylic acid], the pKi is 9.05.

As to `O=C(c1ccc(F)cc1)N1CC(COc2cnc3ccccc3c2)(C(=O)O)C1` [Example 33], the pKi was 6.52.

As for `O=C(c1ccccc1)N1CC(COc2cccc(-c3ccccc3)c2)(C(=O)O)C1` [Example 36], the pKi is 6.15.

As for `O=C(c1ccc(F)cc1)N1CC(COc2ccc(-c3ncc(Cl)cn3)cc2)(C(=O)O)C1` [Example 9], the pKi was 8.18.

`COc1ccc(OC(=O)N2CC(COc3ccc4cc(OC)ccc4c3)(C(=O)O)C2)cc1` [Example 62]: the pKi was 7.91.

With `O=C(c1ccc(F)cc1)N1CC(COc2ccc3nc(-c4ccccn4)sc3c2)(C(=O)O)C1` [Example 7], the pKi was 8.85.

As to `O=C(c1ccc(F)cc1)N1CC(COc2ccc(-c3cccc(Cl)c3)cc2)(C(=O)O)C1` [Example 43], the pKi was 8.28.

For `O=C(c1ccccc1)N1CC(COc2ccc(-c3ccccc3)cn2)(C(=O)O)C1` [Example 49], the pKi is 6.94.

Consider `O=C(c1ccc(F)cc1)N1CC(COc2ccc(-c3ccc(Cl)cn3)cc2)(C(=O)O)C1` [Example 12], for which the pKi was 8.48.

Take `O=C(c1ccc(Cl)cc1)N1CC(COc2ccc(-c3ccc(F)cc3)cc2)(C(=O)O)C1` [Example 2]: the pKi is 8.96.

For `O=C(c1ccccc1)N1CC(COc2ccc(-c3ccccc3)cc2)(C(=O)O)C1` [Example 21], the negative logarithm of the Ki (pKi) was 7.56.

For the molecule `CCOc1ccc(C(=O)N2CC(COc3ccc4nc(C)ccc4c3)(C(=O)O)C2)cc1` [Example 34], the pKi was 6.47.

For the molecule `CCCc1ccc(OCC2(C(=O)O)CN(C(=O)Nc3ccccc3CC)C2)cc1` [Example 69], the pKi is 6.25.

In the case of `COc1ccc(-c2cnc(OCC3(C(=O)O)CN(C(=O)c4ccccc4)C3)nc2)cc1` [Example 46], the pKi was 7.43.

With `COc1ccc2cc(OCC3(C(=O)O)CN(C(=O)Nc4cccc(Cl)c4)C3)ccc2c1` [Example 64], the pKi is 8.12.

In the case of `Cc1ccc2cc(OCC3(C(=O)O)CN(C(=O)c4ccc(F)cc4)C3)ccc2n1` [Example 25], the negative logarithm of the Ki (pKi) was 6.91.

Regarding `CSc1ccc(NC(=O)N2CC(COc3cccc(C)c3C)(C(=O)O)C2)cc1` [Example 68, 3-[(2,3-Dimethylphenoxy)methyl]-1-({[4-(methylthio)phenyl]amino}carbonyl)azetidine-3-carboxylic acid], the pKi was 6.22.

On to `CCCOc1ccc(OCC2(C(=O)O)CN(C(=O)c3ccc(Cl)cc3)C2)cc1` [Example 38], for which the pKi was 7.50.

Regarding `O=C(c1ccc(F)cc1)N1CC(COc2ccc(-c3ccc(F)cc3)cc2)(C(=O)O)C1` [Example 16], the pKi was 8.12.

In the case of `O=C(c1ccc(F)cc1)N1CC(COc2ccc(-c3ccc(F)cc3F)cc2)(C(=O)O)C1` [Example 44], the pKi was 8.25.

On to `COc1ccc2ccc(OCC3(C(=O)O)CN(C(=O)c4ccc(F)cc4)C3)cc2c1` [Example 29], for which the pKi is 6.71.

Turning to `O=C(c1ccc(F)cc1)N1CC(COc2ccc(-c3ccc4ccccc4n3)cc2)(C(=O)O)C1` [Example 3], the pKi is 9.15.

In the case of `CCCOc1ccc(OCC2(C(=O)O)CN(C(=O)Nc3cc(C)cc(C)c3)C2)cc1` [Example 71], the pKi is 6.23.

As for `O=C(c1ccc(Cl)cc1)N1CC(COc2cccc(-c3ccccc3)c2)(C(=O)O)C1` [Example 35], the negative logarithm of the Ki (pKi) was 6.28.

Regarding `Cc1cc(C)c2cc(OCC3(C(=O)O)CN(C(=O)c4ccc(F)cc4)C3)ccc2n1` [Example 24], the pKi was 6.99.

As for `O=C(c1ccc(F)cc1)N1CC(COc2ccc(-c3ccccn3)nc2)(C(=O)O)C1` [Example 27], the pKi was 6.84.

As for `O=C(c1ccccc1)N1CC(COc2cnc(-c3ccccc3)cn2)(C(=O)O)C1` [Example 45, 1-Benzoyl-3-{[(5-phenylpyrazin-2-yl)oxy]methyl}azetidine-3-carboxylic acid], the pKi is 7.25.

Take `COc1ccc2cc(OCC3(C(=O)O)CN(C(=O)Nc4ccc(F)cc4)C3)ccc2c1` [Example 65]: the pKi is 7.25.

For the molecule `O=C(c1ccc(F)cc1)N1CC(COc2ccc(-c3ccccn3)cc2)(C(=O)O)C1` [Example 22], the pKi was 7.27.

As for `N#Cc1ccc(-c2ccc(OCC3(C(=O)O)CN(C(=O)c4ccc(F)cc4)C3)cc2)cc1` [Example 6], the pKi is 8.64.

`Cc1ccc(-c2ccc(OCC3(C(=O)O)CN(C(=O)c4ccc(F)cc4)C3)cc2)cc1` [Example 15]: the pKi is 8.15.

As to `O=C(c1ccc(Cl)cc1)N1CC(COc2ccc(-c3ccc(Cl)cc3)cc2)(C(=O)O)C1` [Example 4], the pKi is 8.80.

On to `COc1ccc2cc(OCC3(C(=O)O)CN(C(=O)Nc4cccc(F)c4)C3)ccc2c1` [Example 63, 1-{[(3-Fluorophenyl)amino]carbonyl}-3-{[(6-methoxy-2-naphthyl)oxy]methyl}azetidine-3-carboxylic acid], for which the pKi is 7.30.

Regarding `COc1ccc2cc(OCC3(C(=O)O)CN(C(=O)Oc4ccc(F)cc4)C3)ccc2c1` [Example 60, 1-[(4-Fluorophenoxy)carbonyl]-3-{[(6-methoxy-2-naphthyl)oxy]methyl}azetidine-3-carboxylic acid], the pKi was 6.57.

`O=C(c1ccccc1)N1CC(COc2ccc3ccccc3c2)(C(=O)O)C1` [Example 28]: the negative logarithm of the Ki (pKi) was 6.76.

Turning to `O=C(c1ccc(F)cc1)N1CC(COc2ccc(-c3ccccc3Cl)cc2)(C(=O)O)C1` [Example 39, 3-{[(2′-Chlorobiphenyl-4-yl)oxy]methyl}-1-(4-fluorobenzoyl)azetidine-3-carboxylic acid], the pKi was 7.65.

Turning to `O=C(C1CCC(F)(F)CC1)N1CC(COc2ccc(-c3ccc(Cl)cc3)cc2)(C(=O)O)C1` [Example 54, 3-{[(4′-Chlorobiphenyl-4-yl)oxy]methyl}-1-[(4,4-difluorocyclohexyl)carbonyl]azetidine-3-carboxylic acid], the pKi is 7.96.
